From article PMC4915074 (Nature communications, 2013)

Tested on: VEGF
Test: VEGF gene expression in THP1 cells by quantitative real-time PCR
Format: cell-based, human
Settings: 10 ng/mL (1.66 nM), 2 h, vs vehicle

## relaxin
  increase in relative expression of VEGF mRNA: 2.4 fold
